Results: patent US4783442A, “B-cell differentiating peptides” (Ortho Pharmaceutical Corporation, priority 1986, dated 1988)
Where a SMILES comes first, the peptide text is derived from it.

Experiments:
pro-Lyb-2 cells [1] = assay: Induction assay: Lyb-2 expression (B-cell differentiation); type: cell-based, mouse; conditions: 3 hr incubation; compared with natural bursopoietin at the same concentration
Protocol: To determine the activity and immunological characteristics of one of the subject peptide, certain related peptides prepared in the above Examples, and natural bursopoietin, an induction assay was carried out substantially as described in Audhya, et al., Proc. Natl. Acad. Sci. USA, 81,2847 (1984).
In brief, prothymocytes (Thy-1^-) and pro-Lyb-2 cells were coenriched from B6-Lyb-2.1 congenic mouse spleen by bovine serum albumin density gradient centrifugation (Path-O-Cyte 5, lot 35, 1 ml of 35/29/26/23/18/12%). The 26/23 and 23/18 interface layers were combined, and Thy-1^+ and Lyb-2^+ cells were removed by reaction with monoclonal Thy-1.2 and Lyb-2.1 antibodies prepared according to Scheid, et al., Immunogenetics, 9, 423-433 (1979), and adherence to plates coated with affinity-purified rabbit anti-mouse F(ab)2. The washed nonadherent cells were used for both assays. This starting population contained 30-40% prothymocytes and 30-40% pro-Lyb-2 cells (known to represent separate committed precursor populations) as described in Scheid, et al., J. Exp. Med., 147, 1727-1743 (1978).
Cells (5×10^6 cells per 0.5 ml of RPMI 1640 medium) were incubated in 5-ml plastic tubes with equal volumes of test compound in serial dilution in RPMI 1640 medium in a humidified 5% CO2 atmosphere for 3 hr. […]

pro-Lyb-2 cells [2] = conditions: from the referenced articles; cited from earlier work

Compound	activity in differentiation induction assay (FIG. 1) (pro-Lyb-2 cells [1])	induction of differentiation of T-cells and B-cells (pro-Lyb-2 cells [2])
NCCCC[C@H](N)C(=O)N[C@@H](Cc1c[nH]cn1)C(=O)NCC(N)=O [H-LYS-HIS-GLY-NH2, L-Lysyl-L-Histidyl-Glycineamide] (H-Lys-His-Gly-NH2)	possessed the activity of the natural isolate	–
ubiquitin	–	nonselectively induce the differentiation of both T-cells and B-cells
